From US20250360149A1, “GPCR INHIBITORS AND USES THEREOF” (GPCR Therapeutics, Inc., priority 2022, published 2025)
Each block holds one molecule with its values, some of them ahead of it.

Legend:
[1] = system: C57BL/6J or Balb/c mice; assay: In vivo mobilization, CBC analysis of WBC (Example 11); details: for fold increase in WBCs compared to the vehicle: PB 2 h after GPC-100 30 mg/kg IV, 1 h after AMD3100 5 mg/kg SC, 12 h after G-CSF 0.1 mg/kg SC BID x5, propranolol 20 mg/kg IP QD x7
[2] = molecular target: CXCR4 and B2AR heteromers (Homo sapiens, UniProt P61073); details: MDA-MB-231 cells
Sequence of CXCR4 and B2AR heteromers (P61073 whole entry, one chain of several): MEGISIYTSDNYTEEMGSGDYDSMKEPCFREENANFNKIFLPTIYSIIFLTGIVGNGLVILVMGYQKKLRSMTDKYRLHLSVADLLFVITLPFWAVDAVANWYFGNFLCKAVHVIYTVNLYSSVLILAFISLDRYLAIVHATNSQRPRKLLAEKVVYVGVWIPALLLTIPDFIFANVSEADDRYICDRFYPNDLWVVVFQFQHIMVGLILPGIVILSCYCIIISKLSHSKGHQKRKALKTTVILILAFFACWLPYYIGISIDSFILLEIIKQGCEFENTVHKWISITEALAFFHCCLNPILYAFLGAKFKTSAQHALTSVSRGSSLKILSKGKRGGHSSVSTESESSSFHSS

[3] = system: C57BL/6J or Balb/c mice; details: 5 mg/kg SC, literature; cited from earlier work
[4] = system: C57/B16 mice; assay: Complete blood count, beta blockers +/- GPC100, single agents and combinations (Examples 6-7); details: for effect of 7-day beta blocker on GPC100-induced mobilization: GPC100 30 mg/kg IV on day 7
[5] = system: LSK cells (Lineage−Sca−1+c−Kit+); assay: Flow cytometry of LSK cells in peripheral blood; details: mouse, in vivo
[6] = system: C57/BL6 mice; assay: Complete blood count in peripheral blood, Example 1 mobilization studies; details: 7-day treatment alone, 20 mg/kg IP

Molecule: CC(C)(C)NCC(O)COc1cccc2c1CC(O)C(O)C2 (centres unmarked) [Nadolol]
effect of 7-day beta blocker on GPC100-induced mobilization [4]: enhanced

B1: G-CSF: Recombinant murine G-CSF, granulocyte-colony stimulating factor (protein, UniProt P09920 31-208, looked up)
Granulocyte …: VPLVTVSALPPSLPLPRSFLLKSLEQVRKIQASGSVLLEQLCATYKLCHPEELVLLGHSLGIPKASLSGCSSQALQQTQCLSQLHSGLCLYQGLLQALSGISPALAPTLDLLQLDVANFATTIWQQMENLGVAPTVQPTQSAMPAFTSAFQRRAGGVLAISYLQGFLETARLALHHLA
fold increase in WBCs compared to the vehicle [1]: 4.5 fold | WBC mobilization, single agent comparison ([4]; single agent): Maximum mobilization | neutrophil mobilization, single agent comparison ([4]; single agent): more neutrophils than GPC100 or AMD3100

Continued, in another order:

changes in platelet count, hemoglobin or other red blood cell parameters ([1]; single administration): No changes | Inhibition of Ca2+ flux enhanced by co-treatment with Pro (in words) [2]: not
Molecule: c1cc(CN2CCCNCCNCCCNCC2)ccc1CN1CCCNCCNCCCNCC1 [AMD3100, Plerixafor]
time of peak mobilization [3]: 1 h

effect on total blood cell counts when administered alone ([4]; seven-day IP, propranolol 20 mg/kg, nadolol 5 mg/kg, ICI-118,551 5 mg/kg): did not affect
Molecule: Cc1ccc(OCC(O)C(C)NC(C)C)c2c1CCC2 (centres unmarked) [ICI-118,551]

Hemoglobin [6]: 13.15 ± 0.8 g/dL | Platelets [6]: 266 ± 52 10^3/uL | RBC [6]: 9.8 ± 0.36 10^6/uL
Molecule: CC(C)NCC(O)COc1cccc2ccccc12 (centres unmarked) [Propranolol]
effect of propranolol on LSK cell mobilization by GPC-100 [5]: enhanced | effect of propranolol pretreatment on GPC-100 induced mobilization ([1]; 20 mg/kg IP over 7 days): significantly improved | fold increase in WBCs compared to the vehicle [1]: 4.1 fold | Lymphocytes [6]: 4.7 ± 1.3 10^3/uL | Monocytes [6]: 0.2 ± 0.09 10^3/uL | Neutrophils [6]: 0.42 ± 0.3 10^3/uL | WBC ([6]; vehicle IV on day 7): 5.4 ± 1.7 10^3/uL | effect of 7-day beta blocker on GPC100-induced mobilization [4]: enhanced | effect on AMD3100-induced mobilization of lymphocytes ([4]; propranolol 20 mg/kg IP D1-D7, AMD3100 5 mg/kg SC D7): slightly increase
